# In ChEMBL document CHEMBL1614632, “Trend analysis of a database of intravenous pharmacokinetic parameters in humans for 670 drug compounds” (Drug Metab Dispos, 2008):
# Numbered stars: 1 amine (or outer) side, 2 acyl side, 3 side chain; on linkers, the order of the positions; unused ones are H or OH. Bridge positions count the residues as written; N and C are the ends. Square brackets hold non-standard residues; d marks the D form. Peptide text beside a SMILES is read from it. * marks the point of attachment. X2 = O=C1C[C@@H](C(=O)[*:2])N([*:1])C[C@H]1CS[C@@H]1CN2CCC1CC2; NMePhe(4-NMe2) = CN[C@@H](Cc1ccc(N(C)C)cc1)C(=O)O; Picolinoyl(3-OH) = O=C(c1ncccc1O)*; hArg = N=C(N)NCCCC[C@H](N)C(=O)O; Phg = N[C@H](C(=O)O)c1ccccc1; dAbu = CC[C@@H](N)C(=O)O; Mpa = O=C(O)CCS
# Assays:
# [1] = clinical; settings: human, in vivo, iv, Vdss
# [2] = clinical; settings: human, in vivo, iv, t1/2
# [3] = clinical; settings: human, in vivo, iv
# [4] = clinical; settings: human, in vivo, iv, CL
# [5] = clinical; settings: human, in vivo, iv; remark: listed apart in the source
Compound,Vd [1] [L/kg],half-life [2] [min],fraction unbound [3],clearance [4] [mL/min/kg],MRT [5] [h]
CCN(CCO)CCCC(C)Nc1ccnc2cc(Cl)ccc12 (stereo not given) [HYDROXYCHLOROQUINE],700,51000,0.57,11,1300
NCc1ccccc1CC(=O)N[C@@H]1C(=O)N2C(C(=O)O)=C(CSc3nnnn3CC(=O)O)CS[C@H]12 [CEFORANIDE],0.17,180,0.19,0.66,4.3
O=C(NC1CCN(CCc2c[nH]c3ccccc23)CC1)c1ccccc1 [INDORAMIN],4.9,258,0.15,20,4.1
NC(N)=Nc1nc(CSCCC(N)=NS(N)(=O)=O)cs1 [FAMOTIDINE],1.2,168,0.84,6.6,3
Nc1nc(Cl)nc2c1ncn2[C@H]1C[C@H](O)[C@@H](CO)O1 [CLADRIBINE],7.7,960,0.79,14,9.2
CCNC(=O)[C@@H]1CCCN1C(=O)[C@H](CCCNC(=N)N)NC(=O)[C@H](CC(C)C)NC(=O)[C@@H](CC(C)C)NC(=O)[C@H](Cc1ccc(O)cc1)NC(=O)[C@H](CO)NC(=O)[C@H](Cc1c[nH]c2ccccc12)NC(=O)[C@H](Cc1c[nH]cn1)NC(=O)[C@@H]1CCC(=O)N1 [LEUPROLIDE],0.38,174,0.54,2,3.1
C[C@H](Cn1cnc2c(N)ncnc21)OCP(=O)(O)O [TENOFOVIR ANHYDROUS],0.83,348,0.93,3.1,3.8
CO/N=C(\C(=O)N[C@@H]1C(=O)N2C(C(=O)O)=C(COC(N)=O)CS[C@H]12)c1ccco1 [CEFUROXIME],0.15,66,0.12,2.2,1.1
CC(=O)O[C@H]1C[C@@H]2CC[C@@H]3[C@H](CC[C@@]4(C)[C@H]3C[C@H]([N+]3(C)CCCCC3)[C@@H]4OC(C)=O)[C@@]2(C)C[C@@H]1N1CCCCC1.[Br-] [VECURONIUM BROMIDE],0.3,84,0.25,4.5,1.1
O=C([O-])[O-].[Li+].[Li+] [LITHIUM CARBONATE],0.62,468,1,1.3,7.9
C=C[C@@]1(O)C[N+]2(C)CC[C@H]1C[C@@H]2[C@@H](O)c1ccnc2ccc(OC)cc12,6.8,402,0.47,12,9.4
CCN(CC)CCNC(=O)c1ccc(NC(C)=O)cc1 [ACECAINIDE],1.9,384,0.9,4,7.9
CCCC(=O)N1CCCN(c2nc(N)c3cc(OC)c(OC)cc3n2)CC1 [BUNAZOSIN],0.72,120,0.06,4.8,2.5
CCCCC/C=C\CCC(=O)N[C@H]1[C@H](Oc2c3cc4cc2Oc2ccc(cc2Cl)[C@@H](O[C@@H]2O[C@H](CO)[C@@H](O)[C@H](O)[C@H]2NC(C)=O)[C@@H]2NC(=O)[C@H](NC(=O)[C@@H]4NC(=O)[C@H]4NC(=O)[C@@H](Cc5ccc(c(Cl)c5)O3)NC(=O)[C@H](N)c3ccc(O)c(c3)Oc3cc(O)cc4c3)c3ccc(O)c(c3)-c3c(O[C@H]4O[C@H](CO)[C@@H](O)[C@H](O)[C@@H]4O)cc(O)cc3[C@@H](C(=O)O)NC2=O)O[C@H](CO)[C@@H](O)[C@@H]1O [TEICOPLANIN A2-1],1.5,9000,0.11,0.2,140
CN(C)CCCN1c2ccccc2Sc2ccccc21 [PROMAZINE],8.1,474,0.11,14,9.6
NCCCCCC(=O)O [AMINOCAPROIC ACID],0.39,294,0.92,2.5,2.6
CC(C)N(CCC(C(N)=O)(c1ccccc1)c1ccccn1)C(C)C (stereo not given) [DISOPYRAMIDE],0.52,420,0.16,0.9,9.6
Nc1ccn([C@@H]2O[C@H](CO)[C@@H](O)C2(F)F)c(=O)n1 [GEMCITABINE],1.5,60,1,32,0.81
COc1cc([C@@H]2c3cc4c(cc3[C@@H](O[C@@H]3O[C@@H]5CO[C@@H](c6cccs6)O[C@H]5[C@H](O)[C@H]3O)[C@H]3COC(=O)[C@H]23)OCO4)cc(OC)c1O [TENIPOSIDE],0.41,960,0.0044,0.19,37

Compound,Vd [1] [L/kg],half-life [2] [min],fraction unbound [3],clearance [4] [mL/min/kg],MRT [5] [h]
CC[C@H]1NC(=O)[C@@H](NC(=O)c2ncccc2O)[C@@H](C)OC(=O)[C@H](c2ccccc2)NC(=O)[C@@H]2CC(=O)[C@H](CS[C@@H]3CN4CCC3CC4)CN2C(=O)[C@H](Cc2ccc(N(C)C)cc2)N(C)C(=O)[C@@H]2CCCN2C1=O [QUINUPRISTIN] ({Picolinoyl(3-OH)}-T[dAbu]P[NMePhe(4-NMe2)][X2][Phg]; ester 1-C),0.67,52.2,0.34,16,0.7
CN(C)C(=O)CCS[C@H](SCCC(=O)O)c1cccc(/C=C/c2ccc3ccc(Cl)cc3n2)c1,0.11,138,0.0004,0.68,2.7
CCCC1C(=O)N2C(N(C)C)=Nc3ccc(C)cc3N2C1=O (stereo not given) [APAZONE],0.12,1020,0.004,0.14,14
O=C1CCc2ccc(OCCCCN3CCN(c4cccc(Cl)c4Cl)CC3)cc2N1 [ARIPIPRAZOLE],4.9,4500,0.01,0.83,98
O=C(O)c1cc(-c2ccc(F)cc2F)ccc1O [DIFLUNISAL],0.097,600,0.0016,0.1,14
CC(=O)[C@H]1CC[C@H]2[C@@H]3CC[C@@H]4C[C@H](O)CC[C@]4(C)[C@H]3CC[C@]12C [ELTANOLONE],2,282,0.01,22,1.5
CC(=O)Oc1ccccc1C(=O)O [ASPIRIN],0.22,15.6,0.68,12,0.3
CC1(C)S[C@@H]2[C@H](NC(=O)[C@H](NC(=O)N3CCNC3=O)c3ccccc3)C(=O)N2[C@H]1C(=O)O [AZLOCILLIN],0.26,72,0.65,2.5,1.7
COc1cc(NCc2ccc3nc(N)nc(N)c3c2C)cc(OC)c1OC [TRIMETREXATE],0.77,1020,0.05,0.77,17
CN(C)/N=N/c1[nH]cnc1C(N)=O [DACARBAZINE],1.2,372,1,2.6,7.8
CC(C)NCC(O)c1ccc(O)c(O)c1 (stereo not given) [ISOPROTERENOL],1.5,24.6,0.71,56,0.43
CN1CCN(CCCCN2C(=O)CN(/N=C/c3ccc(-c4ccc(Cl)cc4)o3)C2=O)CC1 [AZIMILIDE],13,4740,0.06,2.4,100
CC(=O)O[C@H]1C[C@]2(C)CC[C@H]3[C@@H]4C[C@H](N5CC[N+](C)(C)CC5)[C@H](OC(C)=O)[C@@]4(C)CC[C@@H]3[C@@]2(C)C[C@@H]1N1CC[N+](C)(C)CC1.[Br-].[Br-] [PIPERCURONIUM],0.35,114,0.98,3,1.9
CC[C@H]1OC(=O)[C@H](C)C(=O)[C@H](C)[C@@H](O[C@@H]2O[C@H](C)C[C@H](N(C)C)[C@H]2O)[C@](C)(OC)C[C@@H](C)C(=O)[C@H](C)[C@H]2N(CCCCn3cnc(-c4cccnc4)c3)C(=O)O[C@]12C [TELITHROMYCIN],3,720,0.41,14,3.6
CNCCCC12CCC(c3ccccc31)c1ccccc12 [MAPROTILINE],45,3060,0.11,14,54
N=C(N)NCCCC[C@@H]1NC(=O)CCSSC[C@@H](C(N)=O)NC(=O)[C@@H]2CCCN2C(=O)[C@H](Cc2c[nH]c3ccccc23)NC(=O)[C@H](CC(=O)O)NC(=O)CNC1=O [EPTIFIBATIDE] ([Mpa][hArg]GDWPC-NH2; disulfide 1-7),0.17,252,0.75,1.2,2.4
O.O=P(O)(O)C(O)(Cn1ccnc1)P(=O)(O)O [ZOLEDRONIC ACID],0.6,660,0.78,2.2,4.5
Oc1ccc2c(c1)[C@@]13CCCC[C@@]1(O)[C@@H](C2)N(CC1CCC1)CC3 [BUTORPHANOL],12,288,0.17,41,5.3
Cn1nnnc1SCC1=C(C(=O)O)N2C(=O)[C@@H](NC(=O)[C@H](O)c3ccccc3)[C@H]2SC1 [CEFAMANDOLE],0.16,45,0.25,3.6,0.75
